Measured values taken from EP1984353B1, “AURORA KINASE MODULATORS AND METHOD OF USE” (Amgen, Inc, priority 2006, dated 2007).
pIC50: −log10 of the molar value. Where two headings read alike, the source gives them in different places.

Tests used:
AuroraA-TPX2 = target: T1, AuroraA-TPX2 (Homo sapiens, UniProt O14965); assay: AuroraA-TPX2 Homogeneous Time Resolved Fluorescent (HTRF) kinase assay; assay type: biochemical
T1 construct: 20 µL of AuroraA-TPX2 KD GST; GST
T1 sequence (O14965 133-383 limits assumed): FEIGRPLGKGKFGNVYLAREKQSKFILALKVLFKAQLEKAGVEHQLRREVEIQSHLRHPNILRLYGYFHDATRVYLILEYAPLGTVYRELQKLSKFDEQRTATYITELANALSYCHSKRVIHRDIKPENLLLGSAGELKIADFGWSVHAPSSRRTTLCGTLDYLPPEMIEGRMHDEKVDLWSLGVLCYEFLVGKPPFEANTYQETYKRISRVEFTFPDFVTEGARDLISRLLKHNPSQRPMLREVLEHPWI
T1 sequence (Q9ULW0 1-43 partner limits assumed): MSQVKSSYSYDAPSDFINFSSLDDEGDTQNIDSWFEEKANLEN
Protocol: AuroraA-TPX2-Homogeneous Time Resolved Fluorescent (HTRF) Kinase Assay:
The Aurora-A HTRF assay begins with Aurora-A in the presence of ATP phosphorylating the biotinylated peptide PLK. The reaction incubates for about 120 min. Detection reagents are added to quench the reaction. These agents stop the reaction by diluting out the enzyme and chelating the metals due to the presence of EDTA. After addition, the assay is incubated overnight to allow the detection reagents to equilibrate.
The final concentration of PLK is about 1 µM. […] Buffer conditions are as follows: 60mM HEPES pH 7.5, 25mM NaCl, 10mM MgCl, 2mM DTT, 0.05% BSA.
(§1) The assay is quenched and stopped with 160 µL, of detection reagent. Detection reagents are as follows: Buffer made of 50mM Tris, pH 7.5, 100mM NaCl, 3mM EDTA, 0.05% BSA, 0.1% Tween20. Added to this buffer prior to reading is Steptavidin allophycocyanin (SA-APC) at a final conc in the assay of 0.0005 mg/mL, and europilated anti-phosphoPLK Ab (Eu-anti-PLK) at a final conc of 0.02 nM.
The assay plate is read in either a Discovery or a RubyStar. The eu-anti-PLK is excited at 320 nm and emits at 615 nm to excite the SA-APC which in turn emits at 655 nm.

AuroraB = target: T2, AuroraB (Homo sapiens, UniProt Q96GD4); assay: AuroraB Homogeneous Time Resolved Fluorescent (HTRF) kinase assay; assay type: biochemical
T2 construct: 20 µL of AuroraB FL His; His
Protocol: AuroraB-Homogeneous Time Resolved Fluorescent (HTRF) Kinase Assay:
The AuroraB HTRF assay begins with AuroraB in the presence of ATP phosphorylating the biotinylated peptide Histone H3. The reaction incubates for about 90 min. the reaction is quentched by addition of detection reagents, which stop the reaction by diluting out the enzyme and chelating the metals due to the presence of EDTA. After addition, the assay is incubated for about 60 min to allow detection reagents to equilibrate.
The AuroraB HTRF assay comprises 1 µL of compound in 100% DMSO, 20 µL of ATP and biotinylated Histone H3, and 20 µL of AuroraB FL His for a final volume of 41 µL. The final concentration of Histone H3 is 0.1 µM. The final concentration of ATP is 23 µM (Km(app) = 23 µM+/-2.6) and the final concentration of AuroraB is 400 pM. Buffer conditions are as follows: 50mM HEPES pH 7.5, 5mM NaCl, 0.5mM MgCl, 0.5mM MnCl, 2mM DTT, 0.05% BSA.
as §1, with “µL” for “µL,”, “0.001” for “0.0005”, “anti-phosphoHistoneH3” for “anti-phosphoPLK”, “(Eu-anti-HisH3)” for “(Eu-anti-PLK)”, “0.064” for “0.02”
The assay plate is read in either a Discovery or a RubyStar. The eu-anti-HisH3 is excited at 320 nm and emits at 615 nm to excite the SA-APC which in turn emits at 655 nm. The ratio of SA-APC at 655 nm (excited due to close proximity to the Eu-anti-HisH3 because of phosphorylation of the peptide) to free Eu-anti-HisH3 at 615 nm will give substrate phosphorylation.

[1] = average, given as class symbols, read-out: AurA/TP X2_ IC50_IP (Avg)
[2] = average, given as class symbols, read-out: AurB_ _IC50_IP (Avg)

T2 sequence (Q96GD4 whole entry): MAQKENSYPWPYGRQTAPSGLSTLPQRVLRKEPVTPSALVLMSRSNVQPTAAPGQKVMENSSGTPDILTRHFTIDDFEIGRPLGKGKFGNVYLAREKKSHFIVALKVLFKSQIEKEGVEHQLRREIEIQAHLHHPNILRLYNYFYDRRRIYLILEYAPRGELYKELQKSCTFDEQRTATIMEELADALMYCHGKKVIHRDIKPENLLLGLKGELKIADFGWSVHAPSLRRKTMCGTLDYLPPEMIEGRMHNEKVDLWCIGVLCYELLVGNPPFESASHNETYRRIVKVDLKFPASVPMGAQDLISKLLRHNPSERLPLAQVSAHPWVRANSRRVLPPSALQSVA

SMILES	pIC50 (AuroraA-TPX2; [1])	pIC50 (AuroraB; [2])	also measured
Cc1ccnc(-c2nnc(Nc3ccc(Oc4ncccc4-c4ccnc(N)n4)nc3)c3ccccc23)c1 [compound 405, N-(6-((3-(2-amino-4-pyrimidinyl)-2-pyridinyl)oxy)-3-pyridinyl)-4-(4-methyl-2-pyridinyl)-1-phthalazinamine]	6.30 to 7.00	≥ 7.00	–
Nc1nccc(-c2cccnc2Oc2ccc(Nc3ncc(-c4ccc(Cl)cc4)c4ccccc34)cc2)n1 [compound 265, N-(4-((3-(2-amino-4-pyrimidinyl)-2-pyridinyl)oxy)phenyl)-4-(4-chlorophenyl)-1-isoquinolinamine]	≥ 7.00	≥ 7.00	–
CCc1cc(-c2ccccc2)nnc1Nc1ccc(Oc2ncccc2-c2ccnc(NCCCN3CCCCC3)n2)cc1 [compound 458, 4-ethyl-6-phenyl-N-(4-((3-(2-((3-(1-piperidinyl)propyl)amino)-4-pyrimidinyl)-2-pyridinyl)oxy)phenyl)-3-pyridazinamine]	≥ 7.00	≥ 7.00	–
Cc1ccnc(-c2nnc(Nc3ccc(Oc4ncccc4-c4ccnc(NCCCN5CCOCC5)n4)cc3)c3ccccc23)c1 [compound 412, 4-(4-methyl-2-pyridinyl)-N-(4-((3-(2-((3-(4-morpholinyl)propyl)amino)-4-pyrimidinyl)-2-pyridinyl)oxy)phenyl)-1-phthalazinamine]	6.30 to 7.00	≥ 7.00	–
CC(C)c1nnc(Nc2ccc(Oc3ncccc3-c3ccnc(N)n3)nc2)c2ccccc12 [compound 269, N-(6-((3-(2-amino-4-pyrimidinyl)-2-pyridinyl)oxy)-3-pyridinyl)-4-(1-methylethyl)-1-phthalazinamine]	≥ 7.00	≥ 7.00	–
CNc1nccc(-c2cccnc2Oc2ccc(Nc3nnc(-c4cc(Cl)cs4)c4ccccc34)cc2)n1 [Example 245, 4-(4-chlorothiophen-2-yl)-N-(4-(3-(2-(methylamino)pyrimidin-4-yl)pyridin-2-yloxy)phenyl)phthalazin-1-amine]	–	–	pIC50 (AuroraA-TPX2; read-out: average activity in the Aurora kinase A HTRF assay): ≥ 6.00; pIC50 (AuroraB; read-out: average activity in the Aurora kinase B HTRF assay): ≥ 6.00
CCOc1ccc(-c2nnc(Nc3ccc(Oc4ncccc4-c4ccnc(N)n4)cc3)c3ccccc23)cc1 [compound 321, N-(4-((3-(2-amino-4-pyrimidinyl)-2-pyridinyl)oxy)phenyl)-4-(4-(ethyloxy)phenyl)-1-phthalazinamine]	≥ 7.00	≥ 7.00	–
Cc1cc(-c2ccccc2)nnc1Nc1ccc(Oc2ncccc2-c2ccnc3c2CCCN3)cc1 [compound 285, 4-methyl-6-phenyl-N-(4-((3-(5,6,7,8-tetrahydro-1,8-naphthyridin-4-yl)-2-pyridinyl)oxy)phenyl)-3-pyridazinamine]	5.60 to 6.30	6.30 to 7.00	–
Nc1nccc(-c2cccnc2Oc2ccc(Nc3nnc(-c4ccccc4OP(=O)(O)O)c4ccccc34)cc2)n1 [compound 368, 2-(4-((4-((3-(2-amino-4-pyrimidinyl)-2-pyridinyl)oxy)phenyl)amino)-1-phthalazinyl)phenyl dihydrogen phosphate]	5.60 to 6.30	5.60 to 6.30	–
Nc1nccc(-c2cccnc2Oc2ccc(Nc3nnc(-c4cccc(CO)c4)c4ccccc34)cn2)n1 [compound 375, (3-(4-((6-((3-(2-amino-4-pyrimidinyl)-2-pyridinyl)oxy)-3-pyridinyl)amino)-1-phthalazinyl)phenyl)methanol]	≥ 7.00	≥ 7.00	–
Nc1nccc(-c2cccnc2Oc2ccc(Nc3nnc(-c4ccccc4OC(F)(F)F)c4ccccc34)cn2)n1 [compound 383, N-(6-((3-(2-amino-4-pyrimidinyl)-2-pyridinyl)oxy)-3-pyridinyl)-4-(2-((trifluoromethyl)oxy)phenyl)-1-phthalazinamine]	5.60 to 6.30	≥ 7.00	–
Nc1nccc(-c2cccnc2Oc2ccc(Nc3nnc(-c4ccccc4)c4ccsc34)cn2)n1 [compound 313, N-(6-((3-(2-amino-4-pyrimidinyl)-2-pyridinyl)oxy)-3-pyridinyl)-4-phenylthieno[2,3-d]pyridazin-7-amine]	≥ 7.00	≥ 7.00	–
CCOc1ccccc1-c1nnc(Nc2ccc(Oc3ncccc3-c3ccnc(N)n3)cc2)c2ccccc12 [compound 322, N-(4-((3-(2-amino-4-pyrimidinyl)-2-pyridinyl)oxy)phenyl)-4-(2-(ethyloxy)phenyl)-1-phthalazinamine]	≥ 7.00	≥ 7.00	–
CCc1cc(-c2ccccc2)nnc1Nc1ccc(Oc2ncccc2-c2ccnc(NCCCN3CCNCC3)n2)cc1 [compound 457, 4-ethyl-6-phenyl-N-(4-((3-(2-((3-(1-piperazinyl)propyl)amino)-4-pyrimidinyl)-2-pyridinyl)oxy)phenyl)-3-pyridazinamine]	≥ 7.00	≥ 7.00	–
C[C@@H]1CN(c2nnc(Nc3ccc(Oc4ncccc4-c4ccnc(N)n4)cc3)c3ccccc23)CCN1 [compound 399, N-(4-((3-(2-amino-4-pyrimidinyl)-2-pyridinyl)oxy)phenyl)-4-((3R)-3-methyl-1-piperazinyl)-1-phthalazinamine]	5.60 to 6.30	6.30 to 7.00	–
COc1cccc(-c2nnc(Nc3ccc(Oc4ncccc4-c4ccnc(NCCCN5CCCCC5)n4)cc3)c3ccccc23)n1 [compound 454, 4-(6-(methyloxy)-2-pyridinyl)-N-(4-((3-(2-((3-(1-piperidinyl)propyl)amino)-4-pyrimidinyl)-2-pyridinyl)oxy)phenyl)-1-phthalazinamine]	≥ 7.00	≥ 7.00	–
Cc1csc(-c2nnc(Nc3ccc(Oc4ncccc4-c4c[nH]nc4N)c(F)c3)c3ccccc23)n1 [compound 312, N-(4-((3-(3-amino-1H-pyrazol-4-yl)-2-pyridinyl)oxy)-3-fluorophenyl)-4-(4-methyl-1,3-thiazol-2-yl)-1-phthalazinamine]	≥ 7.00	≥ 7.00	–
Nc1nccc(-c2cccnc2Oc2ccc(Nc3nnc(-c4cccc(O)c4)c4ccccc34)cn2)n1 [compound 363, 3-(4-((6-((3-(2-amino-4-pyrimidinyl)-2-pyridinyl)oxy)-3-pyridinyl)amino)-1-phthalazinyl)phenol]	≥ 7.00	≥ 7.00	–
Nc1cc(-c2cccnc2Oc2ccc(Nc3nnc(-c4ccccc4O)c4ccccc34)cc2)ccn1 [compound 371, 2-(4-((4-((2'-amino-3,4'-bipyridin-2-yl)oxy)phenyl)amino)-1-phthalazinyl)phenol]	6.30 to 7.00	≥ 7.00	–
C[C@H]1CN(CCCNc2nccc(-c3cccnc3Oc3ccc(Nc4nnc(-c5ccccc5)c5ccccc45)cc3)n2)[C@@H](C)CO1 [compound 328, N-(4-((3-(2-((3-((2S,5S)-2,5-dimethyl-4-morpholinyl)propyl)amino)-4-pyrimidinyl)-2-pyridinyl)oxy)phenyl)-4-phenyl-1-phthalazinamine]	–	–	pIC50 (AuroraA-TPX2; average, given as numbers, unit inferred, read-out: AurA/TP X2_ IC50_IP (Avg)): 7.19; pIC50 (AuroraB; average, given as numbers, unit inferred, read-out: AurB_ _IC50_IP (Avg)): 8.37
CN(C)CCCOc1cccc(-c2nnc(Nc3ccc(Oc4ncccc4-c4ccnc(N)n4)cc3)c3ccccc23)c1 [compound 374, N-(4-((3-(2-amino-4-pyrimidinyl)-2-pyridinyl)oxy)phenyl)-4-(3-((3-(dimethylamino)propyl)oxy)phenyl)-1-phthalazinamine]	≥ 7.00	≥ 7.00	–
